# Assays:
# [1] = test system: patients with moderate and severe migraine; conditions: human, in vivo
# [2] = test system: patients with moderate and severe migraine and a history of inadequate response to prior acute treatments; assay: Phase 3 randomized, double-blind, placebo- and active-controlled trial, acute treatment of moderate and severe migraine (Example 1), efficacy; assay type: in vivo, human
# Source text: Exclusion criteria included cluster headaches or other types of migraines, chronic daily headache 15 non-migraine headache days per month), history of significant cardiovascular disease, and uncontrolled hypertension.
structure (smiles),measurement,setting,value
"CN(C)CCc1c[nH]c2ccc(Cn3cncn3)cc12 [rizatriptan, Rizatriptan]","Any Treatment-Emergent Adverse Event, % of subjects",[1],15.4%
same,"Any Treatment-Emergent Adverse Event, number of subjects",[1],67
same,"Dizziness, % of subjects",[1],2.1%
same,"Dizziness, number of subjects",[1],9
same,"Nausea, % of subjects",[1],4.8%
same,"Nausea, number of subjects",[1],21
same,"Somnolence, % of subjects",[1],2.1%
same,"Somnolence, number of subjects",[1],9
same,percentage of patients experiencing sustained pain relief from 2 hours to 24 hours after dosing,[2]; 2-24 hours,43.9%
same,proportion of patients with sustained pain freedom from 2 hours to 48 hours,[2]; 2-48 hours,8.8%
same,proportion of patients experiencing pain relief […] after dosing,[2]; […] after dosing,52.5%

# Source: patent US20230372355A1 (AXSOME THERAPEUTICS, INC., priority 2022, published 2023)
